Where two headings read alike, the source gives them in different places. A value given as a limit tells only on which side of the number the result lay.

What all share (assay type): cell-based
One assay concerns the target T1, hGIPR (Homo sapiens, UniProt P48546).
T1 construct: expressed in transfected cells
T1 sequence (P48546 22-466): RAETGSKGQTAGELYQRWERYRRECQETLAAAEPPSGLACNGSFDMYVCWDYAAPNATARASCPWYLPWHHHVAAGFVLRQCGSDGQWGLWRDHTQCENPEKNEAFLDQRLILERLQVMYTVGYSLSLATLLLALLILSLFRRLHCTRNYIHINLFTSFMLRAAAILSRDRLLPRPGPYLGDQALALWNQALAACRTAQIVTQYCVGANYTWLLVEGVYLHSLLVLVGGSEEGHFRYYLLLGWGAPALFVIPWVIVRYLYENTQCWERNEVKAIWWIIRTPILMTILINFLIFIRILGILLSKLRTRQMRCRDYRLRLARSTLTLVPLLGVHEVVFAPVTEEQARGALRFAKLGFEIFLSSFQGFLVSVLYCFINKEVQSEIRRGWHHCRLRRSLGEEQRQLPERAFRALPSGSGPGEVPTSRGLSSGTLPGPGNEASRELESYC
The experiment in a line: Functional cAMP formation (HTRF) in HEK-293 clonal cells expressing hGIPR, 0.1% bovine casein, without or with 1.0% human serum albumin. The note with it: for EC50: cAMP, 0.1% bovine casein (no human serum albumin), geometric mean. The gist of the method:
(§1)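 Cells were stimulated with peptide for 30 min at 37° C, then intracellular cAMP was measured by competitive HTRF (665/620 nm ratio) and converted to nM using a cAMP standard curve. Relative EC50 and Emax came from four-parameter logistic fits of percent maximal response against peptide concentration.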

In the next assay the target is T2, hGCGR (Homo sapiens, UniProt P47871).
T2 construct: expressed in transfected cells
T2 sequence (P47871 26-477): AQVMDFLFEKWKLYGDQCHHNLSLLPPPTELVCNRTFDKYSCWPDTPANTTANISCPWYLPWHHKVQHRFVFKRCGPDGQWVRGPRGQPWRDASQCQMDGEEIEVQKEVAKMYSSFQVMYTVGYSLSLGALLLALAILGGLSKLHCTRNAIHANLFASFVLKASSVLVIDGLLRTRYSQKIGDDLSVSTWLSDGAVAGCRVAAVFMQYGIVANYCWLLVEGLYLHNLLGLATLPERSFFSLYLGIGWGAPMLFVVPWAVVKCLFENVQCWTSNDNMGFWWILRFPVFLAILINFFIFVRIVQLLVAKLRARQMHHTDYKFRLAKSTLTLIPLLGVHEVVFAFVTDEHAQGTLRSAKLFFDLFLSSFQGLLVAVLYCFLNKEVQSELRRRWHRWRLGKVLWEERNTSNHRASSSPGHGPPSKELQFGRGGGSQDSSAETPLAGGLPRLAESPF
The experiment in a line: Functional cAMP formation (HTRF) in HEK-293 clonal cells expressing hGCGR, 0.1% bovine casein, without or with 1.0% human serum albumin. A digest of the protocol:
as §1
(cAMP levels reflect the balance of adenylyl cyclase and phosphodiesterase activity.)

Another assay has as its target hGLP-1R (Homo sapiens, UniProt P43220). The experiment in a line: Functional cAMP formation (HTRF) in HEK-293 clonal cells expressing hGLP-1R, 0.1% bovine casein, without or with 1.0% human serum albumin. Further details: expressed in transfected cells. The note with it: for Emax: read-out: hGLP-1R Emax, % ± SEM; for EC50: geometric mean. A digest of the protocol: as §1

The mark [1] stands for this setting: HEK293, 0.1% bovine casein and 1.0% human serum albumin, 37° C., percent of maximal response to GIP(1-42)NH2, read-out: hGIPR Emax, % ± SEM.
Where [2] appears, read: 0.1% bovine casein and 1.0% human serum albumin, 37° C., geometric mean, read-out: hGCGR EC50, nM (SEM, n).
Setting [3] is: cAMP, 37° C., 0.1% bovine casein (no human serum albumin), geometric mean, read-out: hGCGR EC50, nM (SEM, n).
The mark [4] stands for this setting: HEK293, 0.1% bovine casein and 1.0% human serum albumin, 37° C., percent of maximal response to GLP-1(7-36)NH2.

Sequence of hGLP-1R (P43220 24-463): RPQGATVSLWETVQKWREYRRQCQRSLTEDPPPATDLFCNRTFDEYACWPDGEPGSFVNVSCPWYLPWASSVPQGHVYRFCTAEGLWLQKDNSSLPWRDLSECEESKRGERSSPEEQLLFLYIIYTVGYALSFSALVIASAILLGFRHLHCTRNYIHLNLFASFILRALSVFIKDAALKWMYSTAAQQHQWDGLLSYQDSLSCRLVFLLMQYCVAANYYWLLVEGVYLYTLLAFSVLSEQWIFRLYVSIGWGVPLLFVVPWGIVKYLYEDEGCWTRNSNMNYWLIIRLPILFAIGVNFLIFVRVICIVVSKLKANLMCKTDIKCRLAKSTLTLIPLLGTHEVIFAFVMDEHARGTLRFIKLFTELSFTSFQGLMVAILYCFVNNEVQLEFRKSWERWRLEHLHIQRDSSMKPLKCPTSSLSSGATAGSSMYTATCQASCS

Broadly, the Emax is the greatest response seen or fitted, relative to the assay's reference. The term EC50 denotes the concentration at which the effect is half-maximal. As to `CC[C@H](C)[C@H](NC(=O)[C@H](CCCN)NC(=O)[C@H](CC(=O)O)NC(=O)[C@H](CC(C)C)NC(=O)[C@](C)(CC(C)C)NC(=O)[C@@H](NC(=O)[C@H](CO)NC(=O)[C@H](Cc1ccc2ccccc2c1)NC(=O)[C@H](CC(=O)O)NC(=O)[C@H](CO)NC(=O)[C@@H](NC(=O)[C@](C)(Cc1ccccc1F)NC(=O)[C@@H](NC(=O)CNC(=O)[C@H](CCC(=O)O)NC(=O)C(C)(C)NC(=O)[C@@H](N)Cc1ccc(O)cc1)[C@@H](C)O)[C@@H](C)O)[C@@H](C)CC)C(=O)N[C@@H](C)C(=O)N[C@@H](CCC(N)=O)C(=O)NC(C)(C)C(=O)N[C@@H](CCCCNC(=O)COCCOCCNC(=O)COCCOCCNC(=O)CC[C@H](NC(=O)CCCCCCCCCCCCC(=O)O)C(=O)O)C(=O)N[C@@H](Cc1ccccc1)C(=O)N[C@H](C(=O)N[C@H](CCC(=O)O)C(=O)N[C@@](C)(Cc1ccc(O)cc1)C(=O)N[C@@H](CC(C)C)C(=O)N[C@H](C(=O)N[C@@H](CCC(=O)O)C(=O)NCC(=O)NCC(=O)N1CCC[C@H]1C(=O)N[C@@H](CO)C(=O)N[C@@H](CO)C(=O)NCC(=O)N[C@@H](C)C(=O)N1CCC[C@H]1C(=O)N1CCC[C@H]1C(=O)N1CCC[C@H]1C(=O)N[C@@H](CO)C(=O)N[C@@H](CCCCNC(=O)COCCOCCNC(=O)COCCOCCNC(=O)CC[C@H](NC(=O)CCCCCCCCCCCCC(=O)O)C(=O)O)C(N)=O)[C@@H](C)CC)[C@@H](C)CC` [Example 254], the Emax at hGIPR (setting [1]) amounted to 68.5%; at hGIPR (HEK293, cAMP, 37° C., 0.1% bovine casein, percent of maximal response to GIP(1-42)NH2, arithmetic mean, read-out: hGIPR Emax, % ± SEM), 98.2%; on hGLP-1R (setting [4]), 122%. Further, the EC50 at hGCGR (setting [2]) and at hGCGR (setting [3]) was greater than 9950 nM each time.

Turning to `CC[C@H](C)[C@H](NC(=O)[C@H](CC(C)C)NC(=O)[C@](C)(Cc1ccc(O)cc1)NC(=O)[C@H](CCCCNC(=O)COCCOCCNC(=O)CC[C@H](NC(=O)CCCCCCCCCCCCC(=O)O)C(=O)O)NC(=O)[C@@H](NC(=O)[C@H](Cc1ccccc1)NC(=O)[C@H](CCCN)NC(=O)C(C)(C)NC(=O)[C@H](CCC(N)=O)NC(=O)[C@H](C)NC(=O)[C@H](CCC(N)=O)NC(=O)[C@H](CCCN)NC(=O)[C@H](CC(=O)O)NC(=O)[C@H](CC(C)C)NC(=O)[C@](C)(CC(C)C)NC(=O)[C@@H](NC(=O)C(C)(C)NC(=O)[C@H](Cc1ccncc1)NC(=O)[C@H](CC(=O)O)NC(=O)[C@H](CO)NC(=O)[C@@H](NC(=O)[C@](C)(Cc1ccccc1F)NC(=O)[C@@H](NC(=O)CNC(=O)[C@H](CCC(=O)O)NC(=O)C(C)(C)NC(=O)[C@@H](N)Cc1ccc(O)cc1)[C@@H](C)O)[C@@H](C)O)[C@@H](C)CC)[C@@H](C)CC)C(=O)N[C@@H](CCCCNC(=O)COCCOCCNC(=O)CC[C@H](NC(=O)CCCCCCCCCCCCC(=O)O)C(=O)O)C(=O)NCC(=O)NCC(=O)N1CCC[C@H]1C(=O)N[C@@H](CO)C(=O)N[C@@H](CO)C(=O)NCC(=O)N[C@@H](C)C(=O)N1CCC[C@H]1C(=O)N1CCC[C@H]1C(=O)N1CCC[C@H]1C(=O)N[C@@H](CO)C(N)=O` [Example 459], the Emax at hGIPR (HEK293, cAMP, 37° C., 0.1% bovine casein and 1.0% human serum albumin, percent of maximal response to GIP(1-42)NH2, read-out: hGIPR Emax, % ± SEM) amounted to 89.3%; at hGLP-1R (HEK293, cAMP, 37° C., 0.1% bovine casein, percent of maximal response to GLP-1(7-36)NH2, arithmetic mean) it was 120%. Moreover, the EC50 on hGIPR (37° C., read-out: hGIPR EC50, nM (SEM, n)) was 0.013 nM; on hGCGR (setting [3]) it was greater than 9950 nM; on hGCGR (cAMP, 37° C., 0.1% bovine casein and 1.0% human serum albumin, geometric mean (SEM, n), read-out: hGCGR EC50, nM (SEM, n)), greater than 9950 nM; at hGLP-1R (cAMP, 37° C., 0.1% bovine casein (no human serum albumin), read-out: hGLP-1R EC50, nM (SEM, n)), 0.18 nM.

Regarding `CCCC[C@H](NC(=O)[C@H](CC(=O)O)NC(=O)[C@H](CO)NC(=O)[C@@H](NC(=O)[C@](C)(Cc1ccccc1F)NC(=O)[C@@H](NC(=O)CNC(=O)[C@H](CCC(=O)O)NC(=O)C(C)(C)NC(=O)[C@@H](N)Cc1ccc(O)cc1)[C@@H](C)O)[C@@H](C)O)C(=O)N[C@@H](CO)C(=O)N[C@H](C(=O)N[C@@](C)(CC(C)C)C(=O)N[C@@H](CC(C)C)C(=O)N[C@@H](CC(=O)O)C(=O)N[C@@H](CCCN)C(=O)N[C@@H](CCCCNC(=O)COCCOCCNC(=O)COCCOCCNC(=O)CC[C@H](NC(=O)CCCCCCCCCOc1ccc(C(=O)O)cc1)C(=O)O)C(=O)N[C@@H](C)C(=O)N[C@@H](CCC(N)=O)C(=O)NC(C)(C)C(=O)N[C@@H](CCCCNC(=O)COCCOCCNC(=O)COCCOCCNC(=O)CC[C@H](NC(=O)CCCCCCCCCOc1ccc(C(=O)O)cc1)C(=O)O)C(=O)N[C@@H](Cc1ccccc1)C(=O)N[C@H](C(=O)N[C@H](CCC(=O)O)C(=O)N[C@@](C)(Cc1ccc(O)cc1)C(=O)N[C@@H](CC(C)C)C(=O)N[C@H](C(=O)N[C@@H](CCC(=O)O)C(=O)NCC(=O)NCC(=O)N1CCC[C@H]1C(=O)N[C@@H](CO)C(=O)N[C@@H](CO)C(=O)NCC(=O)N[C@@H](C)C(=O)N1CCC[C@H]1C(=O)N1CCC[C@H]1C(=O)N1CCC[C@H]1C(=O)N[C@@H](CO)C(N)=O)[C@@H](C)CC)[C@@H](C)CC)[C@@H](C)CC` [Example 321], at hGIPR (HEK293, read-out: hGIPR Emax, % ± SEM, 0.1% bovine casein and 1.0% human serum albumin, 37° C., percent of maximal response to GIP(1-42)NH2), the Emax is 94.5%. The EC50 at hGIPR (hGIPR EC50, nM (SEM, n), 37° C.) was 0.0107 nM; at hGCGR (hGCGR EC50, nM (SEM, n), 0.1% bovine casein and 1.0% human serum albumin, 37° C., geometric mean) it was greater than 9950 nM; at hGCGR (hGCGR EC50, nM (SEM, n), cAMP, 37° C., 0.1% bovine casein (no human serum albumin), geometric mean), greater than 9950 nM; on hGLP-1R (hGLP-1R EC50, nM (SEM, n), cAMP, 37° C., 0.1% bovine casein (no human serum albumin)) it was 0.295 nM.

As for `CC[C@H](C)[C@H](NC(=O)[C@H](CCCN)NC(=O)[C@H](CC(=O)O)NC(=O)[C@H](CC(C)C)NC(=O)[C@](C)(CC(C)C)NC(=O)[C@@H](NC(=O)[C@H](CO)NC(=O)[C@H](Cc1ccncc1)NC(=O)[C@H](CC(=O)O)NC(=O)[C@H](CO)NC(=O)[C@@H](NC(=O)[C@](C)(Cc1ccccc1F)NC(=O)[C@@H](NC(=O)CNC(=O)[C@H](CCC(=O)O)NC(=O)C(C)(C)NC(=O)[C@@H](N)Cc1ccc(O)cc1)[C@@H](C)O)[C@@H](C)O)[C@@H](C)CC)C(=O)N[C@@H](C)C(=O)N[C@@H](CCC(N)=O)C(=O)NC(C)(C)C(=O)N[C@@H](CCC(=O)O)C(=O)N[C@@H](Cc1ccccc1)C(=O)N[C@H](C(=O)N[C@@H](CCCCNC(=O)COCCOCCNC(=O)COCCOCCNC(=O)CCCCCCCCCCCCC(=O)O)C(=O)N[C@@](C)(Cc1ccc(O)cc1)C(=O)N[C@@H](CC(C)C)C(=O)N[C@H](C(=O)N[C@@H](CCCCNC(=O)COCCOCCNC(=O)COCCOCCNC(=O)CCCCCCCCCCCCC(=O)O)C(=O)NCC(=O)NCC(=O)N1CCC[C@H]1C(=O)N[C@@H](CO)C(=O)N[C@@H](CO)C(=O)NCC(=O)N[C@@H](C)C(=O)N1CCC[C@H]1C(=O)N1CCC[C@H]1C(=O)N1CCC[C@H]1C(=O)N[C@@H](CO)C(N)=O)[C@@H](C)CC)[C@@H](C)CC` [Example 192], the maximal response (Emax) at hGIPR (setting [1]) was 93.6 ± 3.98%; on hGIPR (HEK293, percent of maximal response to GIP(1-42)NH2, 37° C., 0.1% bovine casein, arithmetic mean, read-out: hGIPR Emax, % ± SEM), 96.5 ± 4.86%; at hGLP-1R (setting [4]), 121 ± 2.56%; on hGLP-1R (HEK293, percent of maximal response to GLP-1(7-36)NH2, 37° C., 0.1% bovine casein, arithmetic mean), 100 ± 2.34%. For the same compound, the EC50 at hGIPR (incubated at 37° C., read-out: hGIPR EC50, nM (SEM, n)) was 0.0375 nM; on hGCGR (setting [2]), greater than 9950 nM; at hGCGR (cAMP, incubated at 37° C., 0.1% bovine casein (no human serum albumin), geometric mean, read-out: hGCGR EC50, nM (SEM, n)), greater than 9950 nM; at hGLP-1R (0.1% bovine casein and 1.0% human serum albumin, 37° C., read-out: hGLP-1R EC50, nM (SEM, n)), 11.2 nM; on hGLP-1R (cAMP, incubated at 37° C., 0.1% bovine casein (no human serum albumin), read-out: hGLP-1R EC50, nM (SEM, n)), 0.518 nM.

The values are drawn from patent US20230265151A1, “GIP/GLP1 CO-AGONIST COMPOUNDS” (priority 2020, published 2023).
